According to patent publication US20260345555A1, “Compositions and Methods for Protecting Salivary Glands from Off-Target Radiation Damage” (University of Rochester, priority 2022, published 2026):

What was measured:
[1] = system: senescence-associated β-galactosidase in salivary gland cell clusters (SGm); test: Cellular senescence assay (SPiDER-βGal) in salivary gland tissue chip, 5 days post-radiation (15 Gy); also second screen of library hits at 100 μM; assay type: cell-based, mouse; as to Senescence (radioprotection): key: +: radioprotection; ~: partial radioprotection; —: no radioprotection
Description: The chip platform consists of an array of near-spherical microbubble (MB) cavities formed in poly(dimethylsiloxane) (PDMS). Each chip, containing ~50 MBs, affixed within wells of a 96-well plate (FIG. 1C). Primary salivary gland cell clusters (FIG. 1A), suspended in a poly(ethylene glycol) (PEG) hydrogel precursor and MMP-degradable peptide crosslinker solution together with the photoinitiator LAP, were applied to the chip allowing the clusters to deposit into the MBs (FIG. 1D). In situ polymerization of the hydrogel was achieved using long-wave, low intensity UV light. Over time, the cell clusters aggregate and proliferate to form SGm (FIG. 1C).
For senescence, a protocol similar to the glutathione assay was followed to determine the optimal time point post-radiation for detecting a change in senescence between 0 Gy and 15 Gy, as measured by senescence-associated β-galactosidase activity.
The glutathione and senescence assays were used to screen a library of FDA-approved drugs (Selleck Chemicals) at 100 μM. Drugs were first screened using the glutathione assay according to the timeline depicted in FIG. 2A. […] Hits with the glutathione assay were then tested with the senescence assay and considered a “double hit” if senescence levels were statistically similar to levels at 0 Gy (FIG. 4, black circles).
Mice were euthanized and the submandibular glands (SMG) were removed and chopped with a razor blade for 5 min. […] Cells were centrifuged, then resuspended in HBSS with 15 mM HEPES and passed through 100 μm and 20 μm mesh filters to isolate clusters between 20-100 μm. […] The isolated clusters were combined with hydrogel precursor solution and seeded in MB array-based chips as described below.
The cell/gel precursor solution (25 μL for 48 well; 20 μL for 96 well) was pipetted onto the MB chips and incubated for 30 min, pipetting every 10 min to redisperse cells that had settled onto the surface of the chip.
A cellular senescence assay for the chips was developed by adapting the Cellular Senescence Detection Kit—SPiDER-βGal (Dojindo Molecular Technologies, Inc. SG04). Bafilomycin A1 and SPiDER-βGal stock solutions were prepared in DMSO per manufacturer directions. The assay was performed by first incubating the chips with bafilomycin A1 (1:1000 dilution in media) for 1 hr at 37 °C. […] Chips were washed twice with media and imaged using a fluorescence microscope with a Texas Red filter (Excitation: 580 nm; Emission: 604 nm).
For radioprotection experiments, SGm were cultured in MB-hydrogel chips for 4 days, then drugs were added to the chips 30 min prior to irradiation and washed out with media 30 min post-radiation treatment. […] The glutathione and senescence assays were performed at 4- and 5-days post-radiation. For assay validation experiments, at least 3 chips (N=3) were used for each drug, corresponding to >100 MBs (n>100); these values are listed in the figure description for each experiment. Mean, standard deviation, and statistics were calculated based on the number of MBs (n).
For screening of the Selleck Chemicals compound library, the same treatment scheme was used, with drugs administered at 100 μM. One MB chip (N=1) was used per compound, with ~40-50 MBs per chip […]; statistics were calculated using the number of MBs (n) and compared to 0 Gy controls.
For both the glutathione and cellular senescence assays, images were quantified in ImageJ.

[2] = system: Reduced glutathione in salivary gland cell clusters (SGm); test: Glutathione assay in salivary gland tissue chip, 4 days post-radiation (15 Gy); also first screen of Selleck library at 100 μM; assay type: cell-based, mouse; settings: for protection against glutathione level changes resulting from radiation: 50 μM; for hit in the drug screen: glutathione assay first screen, 100 μM; as to Glutathione (radioprotection): key: +: radioprotection; ~: partial radioprotection; —: no radioprotection
Procedure, shortened: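 Mouse submandibular gland cell clusters (20–100 μm) in PEG hydrogel on microbubble chips, cultured 4 days to form SGm, then dosed 30 min before and during 15 Gy irradiation and washed out 30 min after. Glutathione measured 4 days post-radiation; library compounds screened at 100 μM, hits matching 0 Gy levels.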

[3] = in vivo; cited from earlier work
[4] = literature; cited from earlier work
[5] = system: irradiated salivary glands; settings: literature; cited from earlier work
COX-1 = settings: role: inhibitor; cited from earlier work
salivary flow rate = settings: swine; cited from earlier work
[6] = in vivo; cited from earlier work; remark: listed apart in the source
[7] = reason for exclusion from further testing; cited from earlier work
[8] = system: p53-dependent and independent apoptosis; settings: cited from earlier work
lymphocyte cells = settings: viability of lymphocytes as primary readout; cited from earlier work

CC(O)(P(=O)(O)O)P(=O)(O)O [Etidronate (Didronel)]
Senescence normalized mean intensity ([1]; second screen of library hits at 100 μM, 15 Gy, 5 days post-radiation, only drugs nonsignificant compared to 0 Gy in the glutathione assay): 0.992 | Glutathione normalized mean intensity ([2]; first screen of Selleck library at 100 μM, 15 Gy, 4 days post-radiation): 0.9486 | bioavailability [3]: poor bioavailability

COc1ccc(Cl)cc1C(=O)NCCc1ccc(S(=O)(=O)NC(=O)NC2CCCCC2)cc1 [Glyburide]
radioprotection [4]: radioprotectors

CC1=NN(c2ccccc2)C(=O)C1 [Edaravone, 3-methyl-1-phenyl-2-pyrazoline-5-one]
Senescence (radioprotection) ([1]; 100 μM): + | protection against radiation-induced senescence ([1]; 100 μM): protective | Senescence (radioprotection) ([1]; 1 mM): + | Senescence (radioprotection) ([1]; 4 mM): + | inhibition at 100 µM ([1]; Mus musculus, light or radiation study, 120 h, 100 μM, versus untreated, irradiated controls, read-out: reduction in senescence): 96% | inhibition at 1000 µM ([1]; Mus musculus, light or radiation study, 120 h, 1 mM, versus untreated, irradiated controls, read-out: reduction in senescence): 94% | inhibition at 4000 µM ([1]; Mus musculus, light or radiation study, 120 h, 4 mM, versus untreated, irradiated controls, read-out: reduction in senescence): 113% | radioprotection using the glutathione assay ([2]; 0.1 mM): partial radioprotection | glutathione levels maintained ([2]; 0.1 mM, 15 Gy): ~ 43% | Glutathione (radioprotection) ([2]; 1 mM): + | prevention of radiation-induced reduction of glutathione levels ([2]; 1 mM, 15 Gy, 4 days post-radiation): showed protection | prevention of radiation-induced reduction of glutathione levels ([2]; 4 mM, 15 Gy, 4 days post-radiation): not at 4 mM | radio-protective dose range [4]: 100 to 1000 µM

Cc1ccc(S(=O)(=O)NC(=O)NN2CC3CCCC3C2)cc1 (stereo not shown) [gliclazide]
antioxidant activity [4]: antioxidant activity | radioprotection [4]: radioprotectors

COc1ccc2c(c1)c(CC(=O)O)c(C)n2C(=O)c1ccc(Cl)cc1 [Indomethacin]
mitigation of salivary gland damage [5]: mitigation of salivary gland damage | radioprotection in drug screen ([2]; 100 μM library screen): showed radioprotection | radioprotection in drug screen ([2]; concentrations lower than 100 μM): ineffective | COX-1 inhibition (COX-1): only blocks COX-1

CO[C@H]1C[C@@H]2CC[C@@H](C)[C@@](O)(O2)C(=O)C(=O)N2CCCC[C@H]2C(=O)O[C@H]([C@H](C)C[C@@H]2CC[C@@H](O)[C@H](OC)C2)CC(=O)[C@H](C)/C=C(\C)[C@@H](O)[C@@H](OC)C(=O)[C@H](C)C[C@H](C)/C=C/C=C/C=C/1C [Rapamycin]
Senescence (radioprotection) ([1]; 50 μM): + | protection against radiation-induced senescence ([1]; 50 μM, 15 Gy): complete protection | protection against glutathione level changes resulting from radiation ([2]; 15 Gy): 58% | salivary flow rate post-radiation (salivary flow rate): restore salivary flow rate post-radiation

CCCSc1ccc2nc(NC(=O)OC)[nH]c2c1 [Albendazole (Albenza)]
bioavailability [3]: poor bioavailability

NCCCNCCSP(=O)(O)O [amifostine]
adverse effects [6]: severe side effects, including nausea, vomiting, and hypotension

COC(=O)[C@@H]1CC2=CC(=O)CC[C@]2(C)[C@@]23O[C@@H]2C[C@@]2(C)[C@@H](CC[C@@]24CCC(=O)O4)[C@H]13 [Eplerenone]
solubility [7]: concerns with solubility

O=C(O)c1ccc(/C=C/S(=O)(=O)Cc2ccc(Cl)cc2)cc1 [Ex-Rad]
radioprotection (senescence) ([1]; 50 μM, 15 Gy): 45% | protection against glutathione level changes resulting from radiation ([2]; 15 Gy): no effect observed | apoptosis [8]: reduce p53-dependent and independent apoptosis

CCn1cc(C(=O)O)c(=O)c2cc(F)c(N3CCNCC3)cc21 [norfloxacin]
radioprotection of lymphocytes (lymphocyte cells): radioprotectors | hit in the drug screen [2]: not hits

C[C@H]1COc2c(N3CCN(C)CC3)c(F)cc3c(=O)c(C(=O)O)cn1c23 [levofloxacin]
radioprotection of lymphocytes (lymphocyte cells): radioprotectors | hit in the drug screen [2]: not hits
